In patent US20250388542A1, “ANALOGUES OF PENTAMIDINE AND USES THEREFOR” (Auransa Inc., priority 2018, published 2025):

Experiments:
Human microsomal CL rate = assay type: in vitro ADME; conditions: human microsomes
NCI-H209 = assay: CellTiter-Glo luminescent cell viability assay; assay type: cell-based; conditions: Homo sapiens
Description: (§1) The objective of this study is to investigate potential cell killing effect of Compounds 1-15 on 3 cancer cell lines. 50% inhibition concentration (IC50) was determined for these compounds in various cancer cell lines using CellTiter-Glo™ luminescent cell viability assay at different compound concentrations. Each cell line (e.g., NCI-H209; NCI-H69; and SW1271) was treated with Compounds 1-15 and culture medium contains 0.2% [v/v] DMSO vehicle control. All the cells were cultured in the media supplemented with 10-20% fetal bovine serum at 37° C., 5% CO2 and 95% humidity.

NCI-H69 = assay: CellTiter-Glo luminescent cell viability assay; assay type: cell-based; conditions: Homo sapiens
Description: as §1

BT-474 = assay: CellTiter-Glo cytotoxicity, cancer cell line panel; assay type: cell-based; conditions: Homo sapiens; BT-474, Invasive ductal carcinoma
Description: as §1
(§2) The objective of this study is to investigate the effect of Compound 1 on cytotoxicity against 61 different types of cancer cell lines. IC50 were values were obtained using CellTiter-Glo™ as described above. Each cell line shown in Table 3 was treated with Compound 1, a standard chemotherapy drug, cisplatin, as reference control and culture medium contains 0.2% [v/v] DMSO vehicle control. All cancer cell lines were cultured in media supplemented with 10-20% fetal bovine serum at 37° C., 5% CO2 and 95% humidity.

Caki-1 = assay: CellTiter-Glo cytotoxicity, cancer cell line panel; assay type: cell-based; conditions: Homo sapiens; Caki-1, Clear cell renal cell carcinoma
Description: as §1, §2

HCCC-9810 = assay: CellTiter-Glo cytotoxicity, cancer cell line panel; assay type: cell-based; conditions: HCCC9810; HCCC-9810, Intrahepatic cholangiocarcinoma
Description: as §1, §2

HLE = assay: CellTiter-Glo cytotoxicity, cancer cell line panel; assay type: cell-based; conditions: Homo sapiens, Hepatocellular carcinoma
Description: as §1, §2

HUH-1 = assay: CellTiter-Glo cytotoxicity, cancer cell line panel; assay type: cell-based; conditions: Homo sapiens; HUH-1, Hepatocellular carcinoma
Description: as §1, §2

Hep G2 = assay: CellTiter-Glo cytotoxicity, cancer cell line panel; assay type: cell-based; conditions: Homo sapiens, HepG2; Hep G2, Hepatoblastoma carcinoma
Description: as §1, §2

Hep3B = assay: CellTiter-Glo cytotoxicity, cancer cell line panel; assay type: cell-based; conditions: Homo sapiens, Hepatocellular carcinoma
Description: as §1, §2

JHH-4 = assay: CellTiter-Glo cytotoxicity, cancer cell line panel; assay type: cell-based; conditions: JHH-4, Hepatocellular carcinoma
Description: as §1, §2

JHH-7 = assay: CellTiter-Glo cytotoxicity, cancer cell line panel; assay type: cell-based; conditions: JHH7; JHH-7, Hepatocellular carcinoma
Description: as §1, §2

NCI-H460 = assay: CellTiter-Glo cytotoxicity, cancer cell line panel; assay type: cell-based; conditions: Homo sapiens; NCI-H460, Large cell lung carcinoma
Description: as §1, §2

OCUG-1 = assay: CellTiter-Glo cytotoxicity, cancer cell line panel; assay type: cell-based; conditions: OCUG-1, Gallbladder carcinoma
Description: as §1, §2

OZ = assay: CellTiter-Glo cytotoxicity, cancer cell line panel; assay type: cell-based; conditions: Intrahepatic cholangiocarcinoma
Description: as §1, §2

SK-OV-3 = assay: CellTiter-Glo cytotoxicity, cancer cell line panel; assay type: cell-based; conditions: Homo sapiens; SK-OV-3, Ovarian serous cystadenocarcinoma
Description: as §1, §2

SNU-398 = assay: CellTiter-Glo cytotoxicity, cancer cell line panel; assay type: cell-based; conditions: Homo sapiens; SNU-398, Hepatocellular carcinoma
Description: as §1, §2

Compound: N=C(N)c1ccc(OCCCCCOc2ccc(C(=N)N)nc2)cc1 [Compound 1, 5-(5-(4-carbamimidoylphenoxy)pentyloxy)picolinimidamide]
- microsomal CLint (Human microsomal CL rate): 13.6 µL/min/mg
- IC50 (NCI-H209): 1700 nM
- IC50 (NCI-H69): 858 nM
- IC50 (BT-474): 15700 nM
- IC50 (Caki-1): 3420 nM
- IC50 (HCCC-9810): 710 nM
- IC50 (HLE): 590 nM
- IC50 (HUH-1): 3200 nM
- IC50 (Hep G2): 340 nM
- IC50 (Hep3B): 280 nM
- IC50 (JHH-4): 1270 nM
- IC50 (JHH-7): 500 nM
- IC50 (NCI-H460): 520 nM
- IC50 (OCUG-1): 2890 nM
- IC50 (OZ): 9390 nM
- IC50 (SK-OV-3): 1170 nM
- IC50 (SNU-398): 220 nM
